Measured values as given in patent US8168177B2, “Method of regulating mammalian target-of-rapamycin activity by interaction between phospholipase D and Rheb” (Postech Academy-Industry Foundation, priority 2006, dated 2012).

Tests used:
[1] = tested on: interaction between mTOR and Rheb / mTOR signaling; assay: IP analysis of HA-RhebQ64L transfected cells treated with 1-butanol, t-butanol, PA, rapamycin; assay type: cell-based
Method: (§1) After harvesting COS7 cells, total extracts were prepared by brief sonication in ice-cold lysis buffer (40 mM HEPES pH7.5, 120 mM NaCl, 1 mM EDTA, 10 mM pyrophosphate, 10 mM glycerophosphate, 50 mM NaF, 1.5 mM Na3VO4, 0.5% CHAPS, 1 mM PMSF, protease inhibitor cocktails). Clarified extracts were mixed with 2 μg of the respective antibodies. Then protein A-Sepharose beads were added to isolate the antibody complex. After four washings with lysis buffer, the final immunoprecipitates were washed once with wash buffer (50 mM HEPES pH7.5, 150 mM NaCl), and then subjected to SDS-PAGE using Hyperfilm (Amersham Pharmacia Biotech), nitrocellulose membranes (Watmann), Power supply (Amersham Pharmacia Biotech), Electrophoretic Transfer unit (Hoefer Scientific Instruments), and ECL™ (Amersham Pharmacia Biotech).
This example examined the speculation that PA could increase Rheb/mTOR binding and activate mTOR through PA-dependent conformational change of mTOR.

S6K1 phosphorylation = assay: Leucine-induced S6K1 phosphorylation (Western blot); assay type: cell-based
Method: COS7 cells (ATCC, CRL-1651) were maintained in a 5% CO2 humidified atmosphere at 37° C. and fed DMEM supplemented with 10% bovine calf serum (HyClone). HEK293 cells (ATCC: CRL-1573) were fed DMEM supplemented with 10% fetal bovine serum (HyClone). Cells grown on tissue culture dishes were transiently transfected using LipofectAMINE, as described in “Park, J. B. et al. Cardiac phospholipase D2 localizes to sarcolemmal membranes and is inhibited by alpha-actinin in an ADP-ribosylation factor-reversible manner. J. Biol. Chem. 275, 21295-21301 (2000)” and “Lee, S. et al. Actin directly interacts with phospholipase D, inhibiting its activity. J. Biol. Chem. 276, 28252-28260 (2001)”, which are hereby incorporated by reference. Cells were allowed to express the recombinant proteins for 24 hr after transfection and then deprived of serum for additional 24 hr. The cells were then subjected to leucine deprivation, co-immunoprecipitation, or GST pull-down analysis. Leucine deprivation was performed as previously described 10 with minor modification. Briefly, cells were deprived of serum first for 24 hrs and then subjected to leucine deprivation in leucine-free RPMI 1640 medium. […]

[2] = tested on: interaction between PLD2 and mTOR; assay: Co-IP of endogenous PLD2 with mTOR (anti-mTOR antibody); assay type: cell-based; conditions: rapamycin: mTOR inhibition; leucine: leucine-deprived COS7 and HEK293 cells (FIG. 17)
Method: as §1

PLD2 = target: T1, PLD2 (Homo sapiens, UniProt O14939); assay: In vivo PLD assay (PBt formation) in PLD2wt transfected cells; assay type: cell-based; conditions: leucine-free vs leucine-added media, 0.4% 1-butanol (FIG. 16)
T1 construct: expressed in transfected cells
Method: In vivo PLD activity was assayed by measuring the formation of phosphatidyl-butanol as described in “Lee, S. et al. Actin directly interacts with phospholipase D, inhibiting its activity. J. Biol. Chem. 276, 28252-28260 (2001)” and “Ha, S. H., Kim, D. H., Kim, I. S., Kim, J. H., Lee, M. N., Lee, H. J., Kim, J. H., Jang, S. K., Suh, P. G., Ryu, S. H. PLD2 forms a functional complex with mTOR/raptor to transduce mitogenic signals. Cell. Signal. 18 (2006) 2283-2291”, which are hereby incorporated by reference.
In brief, cells were loaded with [^3H]myristic acid (2 μCi/ml) for 8 hr and then washed twice with DMEM. Labeled cells were incubated with 0.4% butanol for 10 min to measure basal PLD activity. Total lipids were extracted with 1.2 ml of methanol:1M NaCl:chloroform (1:1:1 by volume) and then separated by thin-layer chromatography on silica gel plates. The amount of [^3H]phosphatidyl-butanol formed was expressed as a percentage of total [^3H]lipid to account for cell labeling efficiency differences.
Until now, the function of PLD2 in nutrient signaling has not been proposed. To this end, the importance of PLD2 in nutrient signaling was tested. […] Based on the result, PLD2 activity in response to nutrient levels was checked. PLD2^wt was transfected and allowed to express for 24 hr.

mTOR complex = target: T2, mTOR complex (Homo sapiens, UniProt P42345); assay: In vitro binding of purified GST-Rheb to mTOR/raptor/PLD2 immunoprecipitate; conditions: PA 10 μM, GST-Rheb 40 nM, in the presence of GTPγS 100 μM (FIG. 13)
T2 construct: expressed in transfected cells; host or cells: The mTOR/raptor/PLD2 complex came from transfected mammalian cells; GST-Rheb was expressed in E. coli
Method: After incubation at 4° C. for 2 hr, the beads were washed and then subjected to SDS-PAGE. E. coli and COS7 cells were lysed with the lysis buffer used for the co-immunoprecipitation. Hexa-histidine (His6)-tagged PLD2 was purified from detergent extracts of baculovirus-infected Sf9 cells (Invitrogen) by chelating Sepharose affinity column chromatography, as previously described in Lee, S. et al. Actin directly interacts with phospholipase D, inhibiting its activity. J. Biol. Chem. 276, 28252-28260 (2001), which is hereby incorporated by reference. […] In vitro binding analysis was done in ice-cold lysis buffer (as used for the co-immunoprecipitation but including 10% glycerol).
HA-mTOR, myc-raptor, and PLD2 were transfected and resulting lysates were immunoprecipitated with anti-HA antibody.

mTOR pathway = conditions: cited from earlier work

Q: Which results are given for `CCCCO` [1-butanol]?
A: interaction between mTOR and Rheb ([1]; 1-butanol 0.4%, HA-RhebQ64L cells serum deprived 24 hr (FIG. 12)): attenuated; stimulatory effect of leucine on S6K1 (S6K1 phosphorylation; 1-butanol treatment): significantly reduced

Q: For `CC(C)C[C@H](N)C(=O)O` [leucine], which “interaction between PLD2 and mTOR” value [2] is on record?
A: increased

Q: What about the “PLD2 activity (PBt formation)” value (PLD2) of the same compound?
A: reversibly regulated

Q: Which “effect of leucine on S6K1 phosphorylation” value (S6K1 phosphorylation; leucine deprivation 45 min, then leucine 15 min (0-100 μM FIG. 20; 100 μM FIG. 21)) does the source give for “PLD2 siRNA: 21-nucleotide siRNA duplex (SEQ ID NO: 9/10) corresponding to human PLD2 coding nucleotides 703-723 (chain 1 AAGAGGUGGCUGGUGGUGAAG; chain 2 CUUCACCACCAGCCACCUCUU; listed as RNA, chemistry not given here)” here?
A: completely downregulated

Q: For `CCCCCC(=O)OC[C@H](COP(=O)(O)O)OC(=O)CCCCC` [PA, C-6 phosphatidic acid], which “Rheb activation of mTOR signaling, rescue from 1-butanol-treated cells” value ([1]; C-6 PA 100 uM (FIG. 12)) is on record?
A: essentially required

Q: And the “GST-Rheb binding to mTOR complex” value (mTOR complex)?
A: increased

Q: And the “rescue of mTOR activity by PA” value (mTOR pathway; PLD1 expression lowered)?
A: could rescue

Q: What about the “activation of mTOR pathway by PA” value (mTOR pathway; PLD2 expression lowered) of the same compound?
A: could no longer activate
